Test [1] concerns the target T1, human glucagon receptor (GCGR) (Homo sapiens, UniProt P47871).
T1 construct: expressed in transfected cells
Description: cAMP assay, human GCGR cells. The class given is cell-based. As for the experimental part:
(§1) Sample dilutions are made in duplicate.
(§2) A frozen cryo-vial of cells expressing the receptor of interest is thawed rapidly in a water-bath, transferred to pre-warmed assay buffer and spun at 240×g for 5 minutes. Cells are re-suspended in assay buffer at a batch-dependent optimized concentration (e.g. hGCGR cells at 2×10^5 cells/ml, hGLP-1R and hGIPR cells at 1×10^5 cells/ml).
(§3) To this, 5 μL cell suspension is added and the plates incubated at room temperature for 30 minutes.
(§4) cAMP levels are measured using a commercially available cAMP dynamic 2 HTRF kit (Cisbio, Cat #62AM4PEJ), following the two step protocol as per manufacturer's recommendations. In brief; anti-cAMP cryptate (donor fluorophore) and cAMP-d2 (acceptor fluorophore) are made up separately by diluting each 1/20 in conjugate & lysis buffer provided in the kit. 5 μL anti-cAMP cryptate is added to wells of the assay plate, and 5 μL cAMP-d2 is added to wells except non-specific binding (NSB) wells, to which conjugate and lysis buffer are added. […] EC50 values of the synthetic peptides determined in cAMP assays are then determined.
(§5) Data is transformed to % Delta F as described in the manufacturer's guidelines and analyzed by 4-parameter logistic fit to determine EC50 values. […] To compare the balance of activities at the GLP-1R and GCGR between different peptides and across different conditions, these can be correlated, where the EC50's are related to those of comparator peptides.
(Cyclic AMP is a second messenger, typically raised through Gs and lowered through Gi signalling.)

The target of test [2] is T2, human glucose-dependent insulinotropic peptide receptor (GIPR) (Homo sapiens, UniProt P48546).
T2 construct: expressed in transfected cells
T2 sequence (P48546 22-466): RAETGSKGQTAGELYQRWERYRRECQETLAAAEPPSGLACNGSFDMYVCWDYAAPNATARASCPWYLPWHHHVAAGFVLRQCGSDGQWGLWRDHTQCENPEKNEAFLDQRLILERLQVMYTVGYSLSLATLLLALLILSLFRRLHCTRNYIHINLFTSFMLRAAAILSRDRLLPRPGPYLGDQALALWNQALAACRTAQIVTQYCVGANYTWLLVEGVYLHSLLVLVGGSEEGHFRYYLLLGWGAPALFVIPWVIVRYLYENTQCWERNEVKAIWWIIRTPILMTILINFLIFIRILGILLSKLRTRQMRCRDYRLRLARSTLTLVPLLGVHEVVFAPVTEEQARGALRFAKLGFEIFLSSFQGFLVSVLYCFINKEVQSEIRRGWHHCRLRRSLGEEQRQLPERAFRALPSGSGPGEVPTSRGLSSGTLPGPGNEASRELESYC
Description: cAMP assay, human GIPR cells. It is filed as cell-based. As for the experimental part: as §1, §2, §3, §4, §5

The mark [3] stands for this setting: cAMP assay, first determination (n1), read-out: Primary assay EC50 Gluc-R (n1).
The mark [4] stands for this setting: cAMP assay, second determination (n2), read-out: Primary assay EC50 Gluc-R (n2).
Where [5] appears, read: cAMP assay, first determination (n1), read-out: Primary assay EC50 GIP-R (n1).
[6] abbreviates: cAMP assay, second determination (n2), read-out: Primary assay EC50 GIP-R (n2).

Among the data in US10414811B2, “Protease-resistant lipidated GLP-1 analogs” (MEDIMMUNE LIMITED, priority 2015, dated 2019) are EC50 values, retold here.

Where two headings read alike, the source gives them in different places. Numbered stars: 1 amine (or outer) side, 2 acyl side, 3 side chain; on linkers, the order of the positions; unused ones are H or OH. Square brackets hold non-standard residues; d marks the D form. Side chains are listed from the residue outwards. Peptide text beside a SMILES is read from it. * marks the point of attachment. γGlu = O=C(O)[C@H](CCC(=O)[*:2])N[*:1]; Palmitoyl = CCCCCCCCCCCCCCCC(=O)*; αMeF = C[C@](N)(Cc1ccccc1)C(=O)O; αMeK = C[C@](N)(CCCCN)C(=O)O; Lauroyl = CCCCCCCCCCCC(=O)*; αMeS = C[C@](N)(CO)C(=O)O; AEEA = NCCOCCOCC(=O)O; Aib = CC(C)(N)C(=O)O

What is called EC50 is the midpoint of the concentration-response curve.

T1 sequence (P47871 26-477): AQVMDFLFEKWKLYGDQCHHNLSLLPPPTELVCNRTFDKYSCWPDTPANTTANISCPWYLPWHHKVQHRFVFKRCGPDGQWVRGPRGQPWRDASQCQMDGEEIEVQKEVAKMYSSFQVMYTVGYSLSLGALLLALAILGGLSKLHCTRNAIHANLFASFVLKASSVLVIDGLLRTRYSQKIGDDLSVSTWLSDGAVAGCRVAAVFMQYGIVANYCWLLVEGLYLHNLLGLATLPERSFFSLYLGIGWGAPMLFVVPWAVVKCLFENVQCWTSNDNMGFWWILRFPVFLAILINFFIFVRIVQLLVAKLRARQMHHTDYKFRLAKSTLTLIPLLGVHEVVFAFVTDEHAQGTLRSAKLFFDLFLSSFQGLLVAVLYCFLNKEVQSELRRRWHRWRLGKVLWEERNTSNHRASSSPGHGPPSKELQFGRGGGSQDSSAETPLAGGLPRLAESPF

As for `CC[C@H](C)[C@H](NC(=O)[C@](C)(Cc1ccccc1)NC(=O)[C@H](CCC(=O)O)NC(=O)[C@H](CCC(=O)O)NC(=O)[C@H](C)NC(=O)[C@H](C)NC(=O)[C@H](CCC(=O)O)NC(=O)CNC(=O)[C@H](CCC(=O)O)NC(=O)[C@H](CC(C)C)NC(=O)[C@](C)(Cc1ccccc1)NC(=O)[C@H](CO)NC(=O)[C@](C)(CO)NC(=O)[C@@H](NC(=O)[C@H](CC(=O)O)NC(=O)[C@H](CO)NC(=O)[C@@H](NC(=O)[C@](C)(Cc1ccccc1)NC(=O)[C@H](CO)NC(=O)CNC(=O)[C@H](CCC(=O)O)NC(=O)C(C)(C)NC(=O)[C@@H](N)Cc1c[nH]cn1)[C@@H](C)O)C(C)C)C(=O)N[C@@H](C)C(=O)N[C@@](C)(Cc1ccccc1)C(=O)N[C@H](C(=O)N[C@H](C(=O)N[C@@H](CCC(=O)O)C(=O)NCC(=O)NCC(N)=O)C(C)C)C(C)C` [compound 44] (H-H[Aib]EGS[αMeF]TSDV[αMeS]S[αMeF]LEGEAAEE[αMeF]IA[αMeF]VVEGG-NH2), the EC50 in test [1] (setting [3]), in test [1] (setting [4]), in test [2] (setting [5]) and in test [2] (setting [6]) was ≥ 31 nM in each case.
For `CC[C@H](C)[C@H](NC(=O)[C@H](Cc1ccccc1)NC(=O)[C@H](CCC(=O)O)NC(=O)[C@H](CCCCN)NC(=O)[C@H](C)NC(=O)[C@H](C)NC(=O)[C@H](CCC(N)=O)NC(=O)CNC(=O)[C@H](CCC(=O)O)NC(=O)[C@H](CC(C)C)NC(=O)[C@H](Cc1ccc(O)cc1)NC(=O)[C@H](CO)NC(=O)C(C)(C)NC(=O)[C@@H](NC(=O)[C@H](CC(=O)O)NC(=O)[C@H](CO)NC(=O)[C@@H](NC(=O)[C@H](Cc1ccccc1)NC(=O)[C@@H](NC(=O)CNC(=O)[C@H](CCC(=O)O)NC(=O)C(C)(C)NC(=O)[C@@H](N)Cc1c[nH]cn1)[C@@H](C)O)[C@@H](C)O)C(C)C)C(=O)N[C@@H](C)C(=O)N[C@@H](Cc1c[nH]c2ccccc12)C(=O)N[C@@H](CC(C)C)C(=O)N[C@H](C(=O)N[C@@H](CCCCN)C(=O)NCC(=O)N[C@@H](CCCNC(=N)N)C(N)=O)C(C)C` [compound 22] (H-H[Aib]EGTFTSDV[Aib]SYLEGQAAKEFIAWLVKGR-NH2; N-terminus assumed), the EC50 amounted to 390 nM in test [1] (setting [3]), 240 nM in test [1] (setting [4]), 480 nM in test [2] (setting [5]) and 480 nM in test [2] (setting [6]).
In the case of `CC[C@H](C)[C@H](NC(=O)[C@](C)(Cc1ccccc1)NC(=O)[C@H](CCC(=O)O)NC(=O)[C@H](CCCCNC(=O)COCCOCCNC(=O)COCCOCCNC(=O)CCCCCCCCCCCCCCCCC(=O)O)NC(=O)[C@H](C)NC(=O)[C@H](C)NC(=O)[C@H](CCC(=O)O)NC(=O)CNC(=O)[C@H](CCC(=O)O)NC(=O)[C@H](CC(C)C)NC(=O)[C@](C)(Cc1ccccc1)NC(=O)[C@H](CO)NC(=O)[C@](C)(CO)NC(=O)[C@@H](NC(=O)[C@H](CC(=O)O)NC(=O)[C@H](CO)NC(=O)[C@@H](NC(=O)[C@](C)(Cc1ccccc1)NC(=O)[C@H](CO)NC(=O)CNC(=O)[C@H](CCC(=O)O)NC(=O)C(C)(C)NC(=O)[C@@H](N)Cc1c[nH]cn1)[C@@H](C)O)C(C)C)C(=O)N[C@@H](C)C(=O)N[C@@](C)(Cc1ccccc1)C(=O)N[C@H](C(=O)N[C@H](C(=O)N[C@@](C)(CCCCN)C(=O)NCC(=O)NCC(N)=O)C(C)C)C(C)C` [compound 162], the EC50 in test [1] (setting [3]), in test [1] (setting [4]), in test [2] (setting [5]) and in test [2] (setting [6]) was ≥ 26 nM each time.
`CCCCCCCCCCCC(=O)N[C@@H](CCC(=O)NCCOCCOCC(=O)NCCOCCOCC(=O)NCCCC[C@H](NC(=O)CNC(=O)[C@H](CCC(=O)O)NC(=O)[C@H](CC(C)C)NC(=O)[C@H](Cc1ccc(O)cc1)NC(=O)[C@H](CO)NC(=O)[C@H](CO)NC(=O)[C@H](CCCCNC(=O)COCCOCCNC(=O)COCCOCCNC(=O)CC[C@H](NC(=O)CCCCCCCCCCC)C(=O)O)NC(=O)[C@H](CC(=O)O)NC(=O)[C@H](CO)NC(=O)[C@@H](NC(=O)[C@](C)(Cc1ccccc1)NC(=O)[C@H](CO)NC(=O)CNC(=O)[C@H](CCC(=O)O)NC(=O)C(C)(C)NC(=O)[C@@H](N)Cc1c[nH]cn1)[C@@H](C)O)C(=O)N[C@@H](C)C(=O)N[C@@H](C)C(=O)N[C@@](C)(CCCCN)C(=O)N[C@@H](CCC(=O)O)C(=O)N[C@@H](Cc1ccccc1)C(=O)N[C@H](C(=O)N[C@@H](C)C(=O)N[C@@H](Cc1ccccc1)C(=O)N[C@@H](CCCCNC(=O)COCCOCCNC(=O)COCCOCCNC(=O)CC[C@H](NC(=O)CCCCCCCCCCC)C(=O)O)C(=O)N[C@H](C(=O)N[C@@H](CCC(=O)O)C(=O)NCC(=O)NCC(N)=O)C(C)C)[C@@H](C)CC)C(=O)O` [compound 472] (H-H[Aib]EGS[αMeF]TSDK([AEEA-AEEA-γGlu-Lauroyl])SSYLEGK([AEEA-AEEA-γGlu-Lauroyl])AA[αMeK]EFIAFK([AEEA-AEEA-γGlu-Lauroyl])VEGG-NH2; N-terminus assumed): the EC50 in test [1] (tris-lipidated peptides, first replicate, read-out: Primary assay EC50 Gluc-R (n1)) was 19.9 nM; in test [2] (tris-lipidated peptides, first replicate, read-out: Primary assay EC50 GIP-R (n1)) it was 19.9 nM.
Regarding `CC[C@H](C)[C@H](NC(=O)[C@](C)(Cc1ccccc1)NC(=O)[C@H](CCC(=O)O)NC(=O)[C@](C)(CCCCN)NC(=O)[C@H](C)NC(=O)[C@H](C)NC(=O)[C@H](CCC(=O)O)NC(=O)CNC(=O)[C@H](CCC(=O)O)NC(=O)[C@H](CC(C)C)NC(=O)[C@](C)(Cc1ccccc1)NC(=O)[C@H](CO)NC(=O)[C@H](CO)NC(=O)[C@@H](NC(=O)[C@H](CCC(=O)O)NC(=O)[C@H](CO)NC(=O)[C@H](CO)NC(=O)[C@](C)(Cc1ccccc1)NC(=O)[C@H](CO)NC(=O)CNC(=O)[C@H](CCC(=O)O)NC(=O)C(C)(C)NC(=O)[C@@H](N)Cc1c[nH]cn1)C(C)C)C(=O)N[C@@H](C)C(=O)N[C@@](C)(Cc1ccccc1)C(=O)N[C@H](C(=O)N[C@H](C(=O)N[C@@](C)(CCCCN)C(=O)NCC(=O)NCC(N)=O)C(C)C)C(C)C` [compound 9] (H-H[Aib]EGS[αMeF]SSEVSS[αMeF]LEGEAA[αMeK]E[αMeF]IA[αMeF]VV[αMeK]GG-NH2; N-terminus assumed), the EC50 in test [1] (setting [3]), in test [1] (setting [4]), in test [2] (setting [5]) and in test [2] (setting [6]) was ≥ 29 nM in each case.
Take `CCCCCCCCCCCCCCCC(=O)N[C@@H](CCC(=O)NCCCC[C@H](NC(=O)[C@](C)(Cc1ccccc1)NC(=O)[C@H](CCC(=O)O)NC(=O)[C@](C)(CCCCN)NC(=O)[C@H](C)NC(=O)[C@H](C)NC(=O)[C@H](CCC(=O)O)NC(=O)CNC(=O)[C@H](CCC(=O)O)NC(=O)[C@H](CC(C)C)NC(=O)[C@](C)(Cc1ccccc1)NC(=O)[C@H](CO)NC(=O)[C@](C)(CO)NC(=O)[C@@H](NC(=O)[C@H](CC(=O)O)NC(=O)[C@H](CO)NC(=O)[C@@H](NC(=O)[C@](C)(Cc1ccccc1)NC(=O)[C@H](CO)NC(=O)CNC(=O)[C@H](CCC(=O)O)NC(=O)C(C)(C)NC(=O)[C@@H](N)Cc1c[nH]cn1)[C@@H](C)O)C(C)C)C(=O)N[C@@H](C)C(=O)N[C@@](C)(Cc1ccccc1)C(=O)N[C@H](C(=O)N[C@H](C(=O)N[C@@](C)(CCCCN)C(=O)NCC(=O)NCC(N)=O)C(C)C)C(C)C)C(=O)O` [compound 77] (H-H[Aib]EGS[αMeF]TSDV[αMeS]S[αMeF]LEGEAA[αMeK]E[αMeF]K([γGlu-Palmitoyl])A[αMeF]VV[αMeK]GG-NH2): the EC50 in test [1] (setting [3]), in test [1] (setting [4]), in test [2] (setting [5]) and in test [2] (setting [6]) was ≥ 28 nM throughout.
